# Experimental data: patent US10968203B2, “Pyrimidinyl-pyridyloxy-naphthyl compounds and methods of treating IRE1-related diseases and disorders” (Genentech, Inc., priority 2017, dated 2021)
# Counter-ions that a name gives are not always drawn.
# Tested on: XBP1s-luc 293 LUC
# Test: cellular PD assay, XBP1s-LUC reporter (Example 903)
# Assay type: cell-based
# Settings: Table 1; read-out: XBP1s-luc 293 LUC (IC50)
# Outline: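 Cellular IRE1α pathway activity was quantified from the luciferase signal of an XBP1-Luc reporter, where the luciferase fusion is in frame and expressed only from the spliced XBP1 transcript.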
row,Compound,IC50
1,"CCCS(=O)(=O)Nc1cccc2c(Oc3ncc(C)cc3-c3ccnc(N[C@H]4CCCNC4)n3)c(C)ccc12 [Example 240, (S)—N-(6-Methyl-5-((5-methyl-3-(2-(piperidin-3-ylamino)pyrimidin-4-yl)pyridin-2-yl)oxy)naphthalen-1-yl)propane-1-sulfonamide]",167 nM
2,"Cc1ccn(-c2cccc3c(Oc4ncccc4-c4ccnc(N[C@H]5CCCNC5)n4)c(C)ccc23)n1 [Example 250, (S)-4-(2-((2-methyl-5-(3-methyl-1H-pyrazol-1-yl)naphthalen-1-yl)oxy)pyridin-3-yl)-N-(piperidin-3-yl)pyrimidin-2-amine]",258 nM
3,"CC[C@@H]1CCN(c2cccc3c(Oc4ncccc4-c4ccnc(N[C@H]5CCCNC5)n4)c(C)ccc23)C1=O (single isomer, unassigned) [Example 266]",121 nM
4,"Cc1ccc2c(NS(=O)(=O)CC(C)C)cccc2c1Oc1ncccc1-c1ccnc(N[C@H]2CCCNC2)n1 [Example 121, (S)-2-Methyl-N-(6-methyl-5-((3-(2-(piperidin-3-ylamino)pyrimidin-4-yl)pyridin-2-yl)oxy)naphthalen-1-yl)propane-1-sulfonamide hydrochloride]",103 nM
5,"Cc1ccc2c(NC(=O)C(C)(C)C#N)cccc2c1Oc1ncccc1-c1ccnc(N[C@H]2CCCNC2)n1 [Example 363, (S)-2-Cyano-2-methyl-N-(6-methyl-5-((3-(2-(piperidin-3-ylamino)pyrimidin-4-yl)pyridin-2-yl)oxy)naphthalen-1-yl)propanamide]",408 nM
6,"Cc1ccc2c(NC(=O)C3(CF)CC3)cccc2c1Oc1ncccc1-c1ccnc(N[C@H]2CCCNC2)n1 [Example 242, (S)-1-(Fluoromethyl)-N-(6-methyl-5-((3-(2-(piperidin-3-ylamino)pyrimidin-4-yl)pyridin-2-yl)oxy)naphthalen-1-yl)cyclopropane-1-carboxamide]",361 nM
7,"Cc1ccc2c(NC(=O)C3CC3)cccc2c1Oc1ncccc1-c1ccnc(N[C@H]2CCCNC2)n1 [Example 337, (S)—N-(6-Methyl-5-((3-(2-(piperidin-3-ylamino)pyrimidin-4-yl)pyridin-2-yl)oxy)naphthalen-1-yl)cyclopropanecarboxamide hydrochloride]",84.2 nM
8,"Cc1ccc2c(Nc3cc(C)n(C)n3)cccc2c1Oc1ncccc1-c1ccnc(N[C@H]2CCCNC2)n1 [Example 258, (S)-4-(2-((5-((1,5-Dimethyl-1H-pyrazol-3-yl)amino)-2-methylnaphthalen-1-yl)oxy)pyridin-3-yl)-N-(piperidin-3-yl)pyrimidin-2-amine]",419 nM
9,"Cc1ccc2c(NC(=O)C(C)C)cccc2c1Oc1ncccc1-c1ccnc(N[C@H]2CCCNC2)n1 [Example 263, (S)—N-(6-Methyl-5-((3-(2-(piperidin-3-ylamino)pyrimidin-4-yl)pyridin-2-yl)oxy)naphthalen-1-yl)isobutyramide hydrochloride]",362 nM
10,"COCCS(=O)(=O)Nc1c(F)ccc2c(Oc3ncccc3-c3ccnc(N[C@H]4CCCNC4)n3)c(C)ccc12 [Example 185, (S)—N-(2-Fluoro-6-methyl-5-((3-(2-(piperidin-3-ylamino)pyrimidin-4-yl)pyridin-2-yl)oxy)naphthalen-1-yl)-2-methoxyethanesulfonamide]",73.5 nM
11,"Cc1ccc2c(NC(=O)C3CC4(CCC4)C3)cccc2c1Oc1ncccc1-c1ccnc(N[C@H]2CCCNC2)n1 [Example 255, (S)—N-(6-Methyl-5-((3-(2-(piperidin-3-ylamino)pyrimidin-4-yl)pyridin-2-yl)oxy)naphthalen-1-yl)spiro[3.3]heptane-2-carboxamide]",182 nM
12,"CCC(=O)Nc1cccc2c(Oc3ncccc3-c3ccnc(N[C@H]4CCCNC4)n3)c(C)ccc12 [Example 173, (S)—N-(6-Methyl-5-((3-(2-(piperidin-3-ylamino)pyrimidin-4-yl)pyridin-2-yl)oxy)naphthalen-1-yl)propionamide]",226 nM
13,"Cc1ccc2c(NS(=O)(=O)C3CCCCC3)c(F)ccc2c1Oc1ncccc1-c1ccnc(N[C@@H]2CNC[C@H](C)C2)n1 [Example 317, N-(2-Fluoro-6-methyl-5-((3-(2-(((3S,5R)-5-methylpiperidin-3-yl)amino)pyrimidin-4-yl)pyridin-2-yl)oxy)naphthalen-1-yl)cyclohexanesulfonamide]",17.6 nM
14,"CCCCNc1cccc2c(Oc3ncccc3-c3ccnc(N[C@H]4CCCNC4)n3)c(C)ccc12 [Example 197, (S)-4-(2-((5-(Butylamino)-2-methylnaphthalen-1-yl)oxy)pyridin-3-yl)-N-(piperidin-3-yl)pyrimidin-2-amine]",228 nM
15,"Cc1ccc2c(NC[C@@H]3CCOC3)cccc2c1Oc1ncccc1-c1ccnc(N[C@H]2CCCNC2)n1 (single isomer, unassigned) [Example 351]",500 nM
16,"Cc1ccc2c(NC(=O)c3ccccc3)cccc2c1Oc1ncccc1-c1ccnc(N[C@H]2CCCNC2)n1 [Example 115, (S)—N-(6-Methyl-5-((3-(2-(piperidin-3-ylamino)pyrimidin-4-yl)pyridin-2-yl)oxy)naphthalen-1-yl)benzamide hydrochloride]",262 nM
17,"CO[C@@H](CNc1cccc2c(Oc3ncccc3-c3ccnc(N[C@H]4CCCNC4)n3)c(C)ccc12)C(F)(F)F [Example 326, 4-(2-((2-Methyl-5-(((S)-3,3,3-trifluoro-2-methoxypropyl)amino)naphthalen-1-yl)oxy)pyridin-3-yl)-N—((S)-piperidin-3-yl)pyrimidin-2-amine]",28.4 nM
18,"Cc1ccc2c(NS(=O)(=O)CBr)cccc2c1Oc1ncccc1-c1ccnc(N[C@H]2CCCNC2)n1 [Example 172, (S)-1-Bromo-N-(6-methyl-5-(3-(2-(piperidin-3-ylamino)pyrimidin-4-yl)pyridin-2-yloxy)naphthalen-1-yl)methanesulfonamide]",393 nM
19,"CCCS(=O)(=O)Nc1cccc2c(Oc3ncccc3-c3ccnc(N[C@@H]4CNCC[C@H]4C)n3)c(C)ccc12 (single isomer, unassigned) [Example 169]",121 nM

# Same assay, conditions: Table 2; read-out: XBP1s-luc 293 LUC (IC50)
row,Compound,IC50
1,"Cc1ccc2c(NS(=O)(=O)CC(F)(F)C(F)(F)F)c(F)ccc2c1Oc1ncccc1-c1ccnc(N[C@H]2CCCNC2)n1 [Example 439, (S)-2,2,3,3,3-Pentafluoro-N-(2-fluoro-6-methyl-5-((3-(2-(piperidin-3-ylamino)pyrimidin-4-yl)pyridin-2-yl)oxy)naphthalen-1-yl)propane-1-sulfonamide hydrochloride]",155 nM
2,"Cc1ccc2c(NS(=O)(=O)Cc3ccccc3F)c(F)ccc2c1Oc1ncccc1-c1ccnc(N[C@H]2CNC[C@H](F)C2)n1 (single isomer, unassigned) [Example 463, hydrochloride]",268 nM
3,"COCCCNc1cccc2c(Oc3ncccc3-c3ccnc(N[C@H]4CCCNC4)n3)c(C)ccc12 [Example 430, 4-[2-[[5-(3-Methoxypropylamino)-2-methyl-1-naphthyl]oxy]-3-pyridyl]-N-[(3S)-3-piperidyl]pyrimidin-2-amine hydrochloride]",275 nM
4,"Cc1c(F)c(NS(=O)(=O)Cc2ccccc2)c2ccccc2c1Oc1ncccc1-c1ccnc(N[C@H]2CCCNC2)n1 [Example 480, (S)—N-(2-Fluoro-3-methyl-4-((3-(2-(piperidin-3-ylamino)pyrimidin-4-yl)pyridin-2-yl)oxy)naphthalen-1-yl)-1-phenylmethanesulfonamide]",7 nM
